According to article PMC7501296, “Rapid and direct control of target protein levels with VHL-recruiting dTAG molecules” (Nature Communications, 2020):
Where “and” joins values, the source holds several entries; their conditions need not be identical. Equal entries are not always repeated.

Tests used:
Type in all cases: cell-based
FKBP12^F36V-Nluc = biological target: T1, FKBP12^F36V-Nluc (Homo sapiens, UniProt P62942, F37V); test: FKBP12F36V-Nluc dual luciferase assay (293FT); details: 293FT FKBP12F36V-Nluc, 24 h
T1 construct: expressed in transfected cells; host or cells: 293FT
T1 sequence (P62942 2-108 F37V limits assumed): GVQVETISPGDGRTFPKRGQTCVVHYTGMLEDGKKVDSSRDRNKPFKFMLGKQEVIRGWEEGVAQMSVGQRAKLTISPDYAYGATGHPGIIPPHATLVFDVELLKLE
Procedure: (§1) Dual luciferase assays were performed using 293FT FKBP12^WT-Nluc and FKBP12^F36V-Nluc cells. In brief, cells were plated at 2000 cells per well in 20 µL of appropriate media in 384-well white culture plates (Corning), allowed to adhere overnight, and 100 nL of compounds were added using a Janus Workstation pin tool (PerkinElmer) for 24 h at 37 °C. To evaluate Fluc signal, plates were brought to room temperature, 20 µL of Dual-Glo Reagent (Promega) was added for 10 min and luminescence was measured on an Envision 2104 plate reader (PerkinElmer). Subsequently, 20 µL of Dual-Glo Stop & Glo Reagent (Promega) was added for 10 min and luminescence was again measured to capture Nluc signal. DMSO-normalized ratios of Nluc/Fluc signal was analyzed and plotted using GraphPad PRISM v8[6].

FKBP12^WT-Nluc = biological target: T2, FKBP12^WT-Nluc (Homo sapiens, UniProt P62942); test: FKBP12WT-Nluc dual luciferase assay (293FT); details: 293FT FKBP12WT-Nluc, 24 h
T2 construct: expressed in transfected cells; host or cells: 293FT
T2 sequence (P62942 2-108 limits assumed): as the sequence (P62942 2-108 F37V limits assumed) above, with V36F counted along it
Procedure: as §1

[1] = tested on: PATU-8902 LACZ-FKBP12^F36V clone; test: Antiproliferation, PATU-8902 LACZ-FKBP12F36V clone, 2D-monolayer (CellTiter-Glo)
Procedure: (§2) Cell viability was assayed in 2D-adherent or ultra-low adherent 3D-spheroids using CellTiter-Glo (Promega)[6],[15]. Luminescence was measured on an Envision 2104 plate reader (PerkinElmer) and Fluostar Omega Reader (BMG Labtech) and data was analyzed using GraphPad PRISM v8. Synergy assessments were performed using CellTiter-Glo (Promega) with the following modifications to the protocol described in the ref. [34]. In brief, EWS502 cells were plated at 1000 cells per well in 50 µL of appropriate media in 384-well white culture plates (Corning) allowed to adhere overnight, and 100 nL of compounds were added using a Janus Workstation pin tool (PerkinElmer) for 72 h. Cell viability was measured by addition of 10 µL of CellTiter-glo (Promega), followed by incubation for 15 minutes at room temperature. Luminescence was measured on an Envision 2104 plate reader (PerkinElmer) and data was analyzed using GraphPad PRISM v8.

[2] = tested on: PATU-8902 FKBP12^F36V-KRAS^G12V; KRAS^-/- clone; test: Antiproliferation, PATU-8902 FKBP12F36V-KRASG12V; KRAS-/- clone, 2D-monolayer (CellTiter-Glo)
Procedure: as §2

[3] = tested on: PATU-8902 LACZ-FKBP12^F36V clone; test: Antiproliferation, PATU-8902 LACZ-FKBP12F36V clone, 3D-spheroid (CellTiter-Glo)
Procedure: as §2

[4] = tested on: PATU-8902 FKBP12^F36V-KRAS^G12V; KRAS^-/- clone; test: Antiproliferation, PATU-8902 FKBP12F36V-KRASG12V; KRAS-/- clone, 3D-spheroid (CellTiter-Glo); details: FKBP12F36V-KRASG12V, KRAS-/-, 3D-spheroid, replicate values
Procedure: as §2

[5] = log10[compound] (M) -5.30103, single replicates
[6] = log10[compound] (M) -5.80103, single replicates
[7] = log10[compound] (M) -6.30103, single replicates
[8] = log10[compound] (M) -6.80103, single replicates
[9] = log10[compound] (M) -7.30103, single replicates
[10] = log10[compound] (M) -7.80103, single replicates
[11] = log10[compound] (M) -8.30103, single replicates
[12] = log10[compound] (M) -8.80103, single replicates
[13] = log10[compound] (M) -9.30103, single replicates
[14] = log10[compound] (M) -9.80103, single replicates
[15] = log10[compound] (M) -5.69897, replicate values
[16] = log10[compound] (M) -6.19897, replicate values
[17] = log10[compound] (M) -6.69897, replicate values
[18] = log10[compound] (M) -7.19897, replicate values
[19] = log10[compound] (M) -7.69897, replicate values
[20] = log10[compound] (M) -8.19897, replicate values
[21] = log10[compound] (M) -8.69897, replicate values
[22] = log10[compound] (M) -9.19897, replicate values
[23] = log10[compound] (M) -9.69897, replicate values
[24] = log10[compound] (M) -10.199, replicate values

With `CC[C@H](C(=O)N1CCCC[C@H]1C(=O)O[C@H](CCc1ccc(OC)c(OC)c1)c1ccccc1OCC(=O)NCCCCCCCCNc1ccc2c(c1)C(=O)N(C1CCC(=O)NC1=O)C2=O)c1cc(OC)c(OC)c(OC)c1` (stereo partly drawn) [dTAG-47] the “DMSO-normalized ratio of Nluc/Fluc signal” value (FKBP12^F36V-Nluc; [5]) was 9.718 and 7.82 and 6.838 and 6.452, the “DMSO-normalized ratio of Nluc/Fluc signal” value (FKBP12^F36V-Nluc; [6]) was 7.4356 and 7.1545 and 9.246 and 9.013 and the “DMSO-normalized ratio of Nluc/Fluc signal” value (FKBP12^F36V-Nluc; [7]) was 8.136 and 6.155 and 6.261 and 6.581. For the same compound, the “DMSO-normalized ratio of Nluc/Fluc signal” value (FKBP12^F36V-Nluc; [8]) was 5.707 and 7.548 and 7.612 and 6.01, the “DMSO-normalized ratio of Nluc/Fluc signal” value (FKBP12^F36V-Nluc; [9]) was 6.03 and 9.875 and 9.62 and 12.7928 and the “DMSO-normalized ratio of Nluc/Fluc signal” value (FKBP12^F36V-Nluc; [10]) was 18.7955 and 27.4949 and 18.2618 and 15.8294. For the same compound, the “DMSO-normalized ratio of Nluc/Fluc signal” value (FKBP12^F36V-Nluc; [11]) was 42.6816 and 38.7415 and 32.3273 and 32.9688, the “DMSO-normalized ratio of Nluc/Fluc signal” value (FKBP12^F36V-Nluc; [12]) was 36.5732 and 37.1776 and 61.6483 and 62.7104 and the “DMSO-normalized ratio of Nluc/Fluc signal” value (FKBP12^F36V-Nluc; [13]) was 80.6958 and 88.3567 and 73.7011 and 76.297. The “DMSO-normalized ratio of Nluc/Fluc signal” value (FKBP12^F36V-Nluc; [14]) was 75.9613 and 95.4034 and 80.0547 and 73.0727, the “DMSO-normalized ratio of Nluc/Fluc signal” value (FKBP12^WT-Nluc; [5]) was 84.1355 and 61.3325 and 70.7772 and 69.8836 and the “DMSO-normalized ratio of Nluc/Fluc signal” value (FKBP12^WT-Nluc; [6]) was 93.0264 and 83.3041 and 88.6237 and 105.071. For the same compound, the “DMSO-normalized ratio of Nluc/Fluc signal” value (FKBP12^WT-Nluc; [7]) was 94.1663 and 90.3102 and 81.5579 and 90.5666, the “DMSO-normalized ratio of Nluc/Fluc signal” value (FKBP12^WT-Nluc; [8]) was 110.721 and 121.213 and 82.3107 and 91.0391 and the “DMSO-normalized ratio of Nluc/Fluc signal” value (FKBP12^WT-Nluc; [9]) was 107.713 and 93.6392 and 128.788 and 92.5578. The “DMSO-normalized ratio of Nluc/Fluc signal” value (FKBP12^WT-Nluc; [10]) was 103.034 and 105.226 and 82.6165 and 80.9641, the “DMSO-normalized ratio of Nluc/Fluc signal” value (FKBP12^WT-Nluc; [11]) was 109.495 and 103.137 and 100.817 and 113.935 and the “DMSO-normalized ratio of Nluc/Fluc signal” value (FKBP12^WT-Nluc; [12]) was 108.489 and 81.746 and 104.598 and 105.548. For the same compound, the “DMSO-normalized ratio of Nluc/Fluc signal” value (FKBP12^WT-Nluc; [13]) was 150.295 and 133.521 and 111.306 and 119.516, the “DMSO-normalized ratio of Nluc/Fluc signal” value (FKBP12^WT-Nluc; [14]) was 91.0985 and 100.837 and 94.8437 and 78.0176 and the DMSO-normalized antiproliferation [1, 15] was 66.3552 and 78.983 and 129.177 and 83.2821. The DMSO-normalized antiproliferation [1, 16] was 96.6043 and 136.336 and 78.4431 and 113.952, the DMSO-normalized antiproliferation [1, 17] was 106.502 and 122.166 and 122.162 and 152.939 and the DMSO-normalized antiproliferation [1, 18] was 97.4699 and 137.606 and 129.786 and 96.3913. For the same compound, the DMSO-normalized antiproliferation [1, 19] was 105.363 and 127.754 and 134.499 and 162.317, the DMSO-normalized antiproliferation [1, 20] was 108.061 and 166.691 and 180.246 and 124.553 and the DMSO-normalized antiproliferation [1, 21] was 122.542 and 158.966 and 101.253 and 156.902. For the same compound, the DMSO-normalized antiproliferation [1, 22] was 124.955 and 178.332 and 114.428 and 108.403, the DMSO-normalized antiproliferation [1, 23] was 90.3511 and 110.898 and 123.983 and 115.732 and the DMSO-normalized antiproliferation [1, 24] was 132.189 and 174.913 and 122.829 and 145.695. For the same compound, the DMSO-normalized antiproliferation [2, 15] was 6.913 and 6.748 and 7.162 and 6.575, the DMSO-normalized antiproliferation [2, 16] was 6.887 and 6.816 and 9.161 and 7.924 and the DMSO-normalized antiproliferation [2, 17] was 8.541 and 7.72 and 7.186 and 7.798. For the same compound, the DMSO-normalized antiproliferation [2, 18] was 7.406 and 10.8399 and 10.8629 and 7.675, the DMSO-normalized antiproliferation [2, 19] was 12.7188 and 13.025 and 10.8965 and 13.2658 and the DMSO-normalized antiproliferation [2, 20] was 32.6374 and 45.5784 and 27.329 and 36.3182. For the same compound, the DMSO-normalized antiproliferation [2, 21] was 78.991 and 62.9303 and 95.6226 and 83.1029, the DMSO-normalized antiproliferation [2, 22] was 131.499 and 101.289 and 106.245 and 113.716 and the DMSO-normalized antiproliferation [2, 23] was 70.9753 and 109.585 and 109.74 and 110.516. For the same compound, the DMSO-normalized antiproliferation [2, 24] was 108.82 and 120.301 and 99.0114 and 87.8166, the DMSO-normalized antiproliferation [3, 15] was 89.4983 and 102.295 and 92.5832 and 113.039 and the DMSO-normalized antiproliferation [3, 16] was 114.787 and 91.3098 and 99.5825 and 107.277. The DMSO-normalized antiproliferation [3, 17] was 113.465 and 134.808 and 116.567 and 121.226, the DMSO-normalized antiproliferation [3, 18] was 129.284 and 117.496 and 141.381 and 115.953 and the DMSO-normalized antiproliferation [3, 19] was 103.38 and 130.979 and 121.849 and 101.748. The DMSO-normalized antiproliferation [3, 20] was 127.652 and 127.302 and 105.649 and 114.859, the DMSO-normalized antiproliferation [3, 21] was 124.033 and 144.628 and 127.266 and 105.313 and the DMSO-normalized antiproliferation [3, 22] was 110.895 and 108.017 and 114.025 and 143. The DMSO-normalized antiproliferation [3, 23] was 107.098 and 111.016 and 108.066 and 105.932, the DMSO-normalized antiproliferation [3, 24] was 102.188 and 109.313 and 104.448 and 106.317 and the DMSO-normalized antiproliferation ([4]; log10[compound] (M) -5.69897) was 10.0402 and 10.6917 and 15.8593 and 10.4467. The DMSO-normalized antiproliferation ([4]; log10[compound] (M) -6.19897) was 11.3488 and 8.236 and 4.984 and 9.032, the DMSO-normalized antiproliferation ([4]; log10[compound] (M) -6.69897) was 14.7066 and 10.4355 and 16.0487 and 8.1023 and the DMSO-normalized antiproliferation ([4]; log10[compound] (M) -7.19897) was 11.6773 and 15.954 and 8.269 and 8.1914. The DMSO-normalized antiproliferation ([4]; log10[compound] (M) -7.69897) was 15.915 and 11.6328 and 15.6143 and 14.7735, the DMSO-normalized antiproliferation ([4]; log10[compound] (M) -8.19897) was 17.2515 and 18.6047 and 14.0328 and 13.4092 and the DMSO-normalized antiproliferation ([4]; log10[compound] (M) -8.69897) was 38.6293 and 28.3831 and 27.3251 and 20.0636. For the same compound, the DMSO-normalized antiproliferation ([4]; log10[compound] (M) -9.19897) was 80.9673 and 68.7721 and 60.1519 and 83.6347, the DMSO-normalized antiproliferation ([4]; log10[compound] (M) -9.69897) was 92.188 and 73.717 and 97.9125 and 91.7258 and the DMSO-normalized antiproliferation ([4]; log10[compound] (M) -10.199) was 111.244 and 86.8032 and 100.63 and 85.0157.
